# Where two headings read alike, the source gives them in different places.
# Legend:
# [1] = system: chorioallantoic membrane (CAM); experiment: Anti-angiogenesis CAM assay; type: in vivo, White Leghorn eggs; conditions: 48 hour exposure, ten eggs
# Experimental: The dosing was effected by pipetting 40 μl of the indicated solution onto a 13 mm round Thermanox® coverslip and allowing it to air dry. After the material appeared dry, the coverslip was placed onto the chorioallantoic membrane (CAM) of each egg insuring contact of the dried test article with the CAM. After dosing, the eggs were returned to the incubator for approximately 48 hours. Following the 48 hour exposure period, the eggs were removed from the incubator, observed for viability, and the exposed area under the coverslip was examined for loss of vasculature.
# CaCo-2 cells = experiment: Induction of apoptosis, DNA fragmentation analysis, CaCo-2; type: cell-based, human; conditions: 12 hours treatment
# Experimental: T84, CaCo-2 and HUVEC cells, respectively, were grown in 100 mm dishes for 7-9 days, culture media for HUVEC was EGM-2 (Clonetics, BioWhitaker Co.), until they reached semi-confluency. Cell monolayers were then treated for 12 hours (CaCo-2 and T84) and 16 hours (HUVEC), respectively, at the indicated concentrations of N,N,-diethyl-8,8-dipropyl-2-azaspiro[4,5]decane-2-propanamine dimaleate (Compound 1) in culture media. Cells were collected by trypsinization and the apoptotic DNA was isolated from these cells following the instructions of the DNA fragmentation analysis kit (Boehringer Mannheim Corp., Indianapolis, Ind.). The apoptotic DNA was evaluated using 1.5% agarose gel electrophoresis followed by staining with ethidium bromide. M denotes the lane containing molecular weight markers of DNA.
# T84 cells = experiment: Inhibition of T84 colon carcinoma cell proliferation (WST-1, Example 1); type: cell-based; conditions: Homo sapiens, 24 hours incubation
# Experimental: The effect of N,N,-diethyl-8,8-dipropyl-2-azaspiro[4,5]decane-2-propanamine dimaleate (Compound 1) on proliferation of human colon carcinoma cells T84 and CaCo-2 was evaluated in the following manner. Cell proliferation was measured by WST-1 dye conversion to Formazan assay using the proliferation kit from BioVision, CA. The procedure used was essentially as described in the manufacture's instructions. Briefly, cells were grown for 7 days until they formed semi-confluent monolayers. On day 7, cells were trypsinized and resuspended in 96-well plates at a concentration of approximately 40,000 cells/well and allowed to grow for 24 hours at 37° C.
# Subsequently, fresh media containing increasing concentrations of Compound 1, as indicated in the FIG. 1, were added and assay plates were further incubated for an additional period of 24 hours. A solution of 5 μl of WST-1 dye per well was added and plates were read after 4 hours at 440 and 600 nm using an ELISA plate reader. The absorbance at 440 minus that at 600 nm is directly proportion to the number of proliferating cells. All samples were measured in triplicate and results were expressed as an average of three determinations.
# RPMI-8226 = experiment: NCI in vitro SRB assay, Leukemia; type: cell-based; conditions: for CC50 / GI50: Homo sapiens
# Experimental: (§1) An in vitro assay which tested the ability of N,N,-diethyl-8,8-dipropyl-2-azaspiro[4,5]decane-2-propanamine dimaleate (Compound 1) to inhibit the growth of known cancer cell lines was performed by the National Cancer Institute in accordance with standard procedures. See: Lin, Z. X., Hoult, J. R., and Raman, A. Sulphorhodamine B assay for measuring proliferation of a pigmented melanocyte cell line and its application to the evaluation of crude drugs used in the treatment of vitiligo. J Ethnopharmacol. 66: 141-150, 1999. Briefly, selected tumor cell lines were cultured in media containing five different concentrations of Compound 1. After 48 hours of continuous exposure, a sulforhodamine B (SRB) assay was used to estimate cell viability or growth via optical measurements.
# (§2) From the measurements, the following values were determined: 1) the concentration of Compound 1 at which a tumor cell growth inhibition of 50% (relative to control) occurs (GI50), 2) the concentration of Compound 1 at which no growth occurs (total growth inhibition, TGI), and 3) the concentration of Compound 1 at which the […] (LC 50). […] FIG. 6 illustrates, graphically, tumor cell growth as a function of Compound 1 concentration of the scanned tumor cell lines.
# CCRF-CEM = experiment: NCI in vitro SRB assay, Leukemia; type: cell-based; conditions: for GI50 / CC50: Homo sapiens
# Experimental: as §1, §2
# [2] = RPMI-8226, Log10 conc -4.0 Moles/L
# [3] = RPMI-8226, Log10 conc -5.0 Moles/L
# [4] = RPMI-8226, Log10 conc -6.0 Moles/L
# [5] = RPMI-8226, Log10 conc -7.0 Moles/L
# [6] = RPMI-8226, Log10 conc -8.0 Moles/L
smiles,measurement,setting,value
"CCCC1(CCC)CCC2(CCN(CCCN(CC)CC)C2)CC1.O=C(O)/C=C\C(=O)O.O=C(O)/C=C\C(=O)O [Compound 1, N,N,-diethyl-8,8-dipropyl-2-azaspiro[4,5]decane-2-propanamine dimaleate]",Dead Eggs,[1]; Dose per egg 25 μg (0.625 mg/ml),0
same,Dead Eggs,[1]; Dose per egg 50 μg (1.25 mg/ml),0
same,Dead Eggs,[1]; Dose per egg 100 μg,4
same,Dead Eggs,[1]; Dose per egg 200 μg (5 mg/ml),3
same,Dead Eggs,[1]; Dose per egg 400 μg (10 mg/ml),7
same,DNA ladder formation (apoptosis),CaCo-2 cells,formation of DNA laddering in a dose-dependent manner
same,IC50,T84 cells,625 to 1250 nM
same,CC50,"RPMI-8226; RPMI-8226, read-out: LC50",> 100000 nM
same,CC50,"RPMI-8226; RPMI-8226, read-out: Log10 LC50 (converted)",> 100000 nM
same,GI50,"RPMI-8226; RPMI-8226, read-out: GI50",283 nM
same,GI50,"RPMI-8226; RPMI-8226, read-out: Log10 GI50 (converted)",282 nM
same,Log10 TGI,RPMI-8226; RPMI-8226,−4.53
same,TGI,RPMI-8226; RPMI-8226,29800 nM
same,Mean Optical Densities,RPMI-8226; [2],0.185
same,Percent Growth,RPMI-8226; [2],−3%
same,Mean Optical Densities,RPMI-8226; [3],0.218
same,Percent Growth,RPMI-8226; [3],3%
same,Mean Optical Densities,RPMI-8226; [4],0.371
same,Percent Growth,RPMI-8226; [4],21%
same,Mean Optical Densities,RPMI-8226; [5],0.843
same,Percent Growth,RPMI-8226; [5],74%
same,Mean Optical Densities,RPMI-8226; [6],0.918
same,Percent Growth,RPMI-8226; [6],83%
same,Log10 TGI,CCRF-CEM,>−4.00
same,TGI,CCRF-CEM,>100000 nM
same,GI50,CCRF-CEM; read-out: GI50,1090 nM
same,CC50,CCRF-CEM; read-out: LC50,> 100000 nM
same,GI50,CCRF-CEM; read-out: Log10 GI50 (converted),1100 nM
same,CC50,CCRF-CEM; read-out: Log10 LC50 (converted),> 100000 nM
same,Mean Optical Densities,CCRF-CEM; Log10 conc -4.0 Moles/L,0.115
same,Percent Growth,CCRF-CEM; Log10 conc -4.0 Moles/L,6%
same,Mean Optical Densities,CCRF-CEM; Log10 conc -5.0 Moles/L,0.158
same,Percent Growth,CCRF-CEM; Log10 conc -5.0 Moles/L,13%
same,Mean Optical Densities,CCRF-CEM; Log10 conc -6.0 Moles/L,0.409
same,Percent Growth,CCRF-CEM; Log10 conc -6.0 Moles/L,51%
same,Mean Optical Densities,CCRF-CEM; Log10 conc -7.0 Moles/L,0.597
same,Percent Growth,CCRF-CEM; Log10 conc -7.0 Moles/L,81%
same,Mean Optical Densities,CCRF-CEM; Log10 conc -8.0 Moles/L,0.611
same,Percent Growth,CCRF-CEM; Log10 conc -8.0 Moles/L,83%

# Source: patent US20050250801A1, “Method of treating cancer with azaspirane compositions” (priority 2003, published 2005)
